Source: patent US11390603B2, “Crystalline forms of a biphenyl compound” (THERAVANCE BIOPHARMA R&D IP, LLC, priority 2005, dated 2022)
pKi: −log10 of the molar value.

Molecular target: T1, hM3 receptor (Homo sapiens, UniProt P20309)
T1 construct: expressed in transfected cells
Assay: Blockade of agonist-mediated calcium release via FLIPR
Format: cell-based
Details: CHO cells stably expressing the hM3 receptor; this or a similar assay
Excerpt: Muscarinic receptor subtypes (M1, M3 and M5 receptors), which couple to Gq proteins, activate the phospholipase C (PLC) pathway upon agonist binding to the receptor. As a result, activated PLC hydrolyzes phosphatyl inositol diphosphate (PIP2) to diacylglycerol (DAG) and […] (IP3), which in turn generates calcium release from intracellular stores, i.e., endoplasmic and sarcoplasmic reticulum. The FLIPR (Molecular Devices, Sunnyvale, Calif.) assay capitalizes on this increase in intracellular calcium by using a calcium sensitive dye (Fluo-4AM, Molecular Probes, Eugene, Oreg.) that fluoresces when free calcium binds. This fluorescence event is measured in real time by the FLIPR, which detects the change in fluorescence from a monolayer of cells cloned with human M1 and M3, and chimpanzee M5 receptors. Antagonist potency can be determined by the ability of antagonists to inhibit agonist-mediated increases in intracellular calcium. […]
To determine antagonist potency, the dose-dependent stimulation of intracellular Ca^2+ release for oxotremorine is first determined so that antagonist potency can later be measured against oxotremorine stimulation at an EC90 concentration. […]
The change of fluorescence is expressed as maximum fluorescence minus baseline fluorescence for each well. […]

T1 sequence (P20309 whole entry): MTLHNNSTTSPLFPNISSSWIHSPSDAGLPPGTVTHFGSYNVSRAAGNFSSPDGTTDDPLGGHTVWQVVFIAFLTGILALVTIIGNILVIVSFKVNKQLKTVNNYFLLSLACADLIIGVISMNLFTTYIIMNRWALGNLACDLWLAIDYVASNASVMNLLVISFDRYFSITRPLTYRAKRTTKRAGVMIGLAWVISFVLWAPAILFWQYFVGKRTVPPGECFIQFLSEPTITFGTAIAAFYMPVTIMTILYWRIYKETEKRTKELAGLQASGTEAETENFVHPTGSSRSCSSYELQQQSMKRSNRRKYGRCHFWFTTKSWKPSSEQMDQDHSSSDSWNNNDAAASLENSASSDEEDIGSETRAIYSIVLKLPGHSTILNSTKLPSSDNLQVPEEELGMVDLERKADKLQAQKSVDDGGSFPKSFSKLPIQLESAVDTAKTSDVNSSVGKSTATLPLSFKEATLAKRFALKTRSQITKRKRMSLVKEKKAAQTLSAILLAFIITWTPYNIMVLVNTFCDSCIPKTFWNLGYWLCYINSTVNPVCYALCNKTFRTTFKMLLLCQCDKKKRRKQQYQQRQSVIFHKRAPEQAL

For `CN(CCN1CCC(OC(=O)Nc2ccccc2-c2ccccc2)CC1)C(=O)c1ccc(CN2CCC(C(N)=O)CC2)cc1` [compound of formula I, biphenyl-2-ylcarbamic acid 1-(2-{[4-(4-carbamoylpiperidin-1-ylmethyl)benzoyl]methylamino}ethyl)piperidin-4-yl ester], the pKi was greater than 8.30.
